# Experimental data: ChEMBL document CHEMBL1201862, “PubChem BioAssay data set” (2004)
#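 96-well plates; 48 h exposure; 5 concentrations. Endpoints by linear interpolation between flanking doses. Not reached: highest tested concentration assigned. GI50 marks 50% less growth.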 Calls of active or inactive are those of the source. Cut-off read from the data, not from the text of the source: active = GI50 up to about 1.1 µM and inactive = higher.
# What was measured:
# Experiment in all cases: inhibition of tumour cell growth, NCI panel, 48 h
# 786-0 = system: 786-0
# A549 = system: A549
# CAKI-1 = system: CAKI-1
# HCC 2998 = system: HCC 2998
# HCT-116 = system: HCT-116
# HT-29 = system: HT-29
# Hs-578T = system: Hs-578T
# MCF7 = system: MCF7
# MDA-MB-435 = system: MDA-MB-435
# NCI-H226 = system: NCI-H226
# NCI-H522 = system: NCI-H522
# OVCAR-8 = system: OVCAR-8
# RPMI-8226 = system: RPMI-8226
# SF-295 = system: SF-295
# SK-OV-3 = system: SK-OV-3
# SN12C = system: SN12C
# SNB-19 = system: SNB-19
# U-251 = system: U-251
# UO-31 = system: UO-31
# RXF 393 = system: RXF 393
SMILES,GI50 (786-0),GI50 (A549),GI50 (CAKI-1),GI50 (HCC 2998),GI50 (HCT-116),GI50 (HT-29),GI50 (Hs-578T),GI50 (MCF7),GI50 (MDA-MB-435),GI50 (NCI-H226),GI50 (NCI-H522),GI50 (OVCAR-8),GI50 (RPMI-8226),GI50 (SF-295),GI50 (SK-OV-3),GI50 (SN12C),GI50 (SNB-19),GI50 (U-251),GI50 (UO-31),GI50 (RXF 393)
Cc1ccsc1C(=S)Nc1ccc(Cl)c(C(=O)OC(C(C)C)C(C)C)c1,19.8 µM (inactive),12.2 µM (inactive),19.5 µM (inactive),16.1 µM (inactive),12.1 µM (inactive),17.4 µM (inactive),39.4 µM (inactive),16.1 µM (inactive),17.7 µM (inactive),29 µM (inactive),11.4 µM (inactive),21.3 µM (inactive),10.6 µM (inactive),21.9 µM (inactive),28.2 µM (inactive),24.8 µM (inactive),25.5 µM (inactive),24.4 µM (inactive),13.1 µM (inactive),
NNS(=O)(=O)c1ccc(/C=C2\NC(=O)NC2=O)cc1,> 100 µM (inactive),> 100 µM (inactive),> 100 µM (inactive),> 100 µM (inactive),> 100 µM (inactive),> 100 µM (inactive),> 100 µM (inactive),> 100 µM (inactive),> 100 µM (inactive),> 100 µM (inactive),,> 100 µM (inactive),> 100 µM (inactive),> 100 µM (inactive),> 100 µM (inactive),> 100 µM (inactive),> 100 µM (inactive),> 100 µM (inactive),> 100 µM (inactive),
NC1=NC2(COC(c3ccccc3)(c3ccccc3)c3ccccc3)OC(COC(c3ccccc3)(c3ccccc3)c3ccccc3)C(O)C2O1 (centres undefined),> 100 µM (inactive),25.1 µM (inactive),> 100 µM (inactive),,38.3 µM (inactive),65 µM (inactive),0.258 µM (active),> 100 µM (inactive),65.8 µM (inactive),24.2 µM (inactive),52.5 µM (inactive),5.98 µM (inactive),16.6 µM (inactive),46.5 µM (inactive),> 100 µM (inactive),> 100 µM (inactive),23 µM (inactive),> 100 µM (inactive),13.4 µM (inactive),66.5 µM (inactive)
c1csc(-c2cc(-c3ccsc3)cs2)c1,44.2 µM (inactive),44.8 µM (inactive),> 100 µM (inactive),> 100 µM (inactive),> 100 µM (inactive),41.4 µM (inactive),21 µM (inactive),34.8 µM (inactive),> 100 µM (inactive),,,,> 100 µM (inactive),32.1 µM (inactive),33.8 µM (inactive),> 100 µM (inactive),,> 100 µM (inactive),78.2 µM (inactive),20.6 µM (inactive)
C[N+](C)(C)CC(=O)N/N=C/c1ccncc1,> 100 µM (inactive),> 100 µM (inactive),> 100 µM (inactive),,> 100 µM (inactive),> 100 µM (inactive),> 100 µM (inactive),> 100 µM (inactive),> 100 µM (inactive),> 100 µM (inactive),> 100 µM (inactive),> 100 µM (inactive),> 100 µM (inactive),> 100 µM (inactive),> 100 µM (inactive),> 100 µM (inactive),> 100 µM (inactive),> 100 µM (inactive),> 100 µM (inactive),> 100 µM (inactive)
O=[N+]([O-])c1ccc2c(c1)nc1n2C(c2c(F)cccc2F)SC1 (centres undefined),> 91.6 µM (inactive),> 100 µM (inactive),,> 100 µM (inactive),> 100 µM (inactive),> 100 µM (inactive),> 100 µM (inactive),> 100 µM (inactive),> 100 µM (inactive),,> 100 µM (inactive),> 100 µM (inactive),> 100 µM (inactive),> 100 µM (inactive),> 100 µM (inactive),> 100 µM (inactive),> 100 µM (inactive),> 74.1 µM (inactive),,> 100 µM (inactive)
O=C1CCCC1CN1CCCC1 (centres undefined),5.22 µM (inactive),> 75.5 µM (inactive),0.348 µM (active),> 45.2 µM (inactive),3.44 µM (inactive),23.2 µM (inactive),22.2 µM (inactive),2.2 µM (inactive),13.1 µM (inactive),46.2 µM (inactive),< 0.0275 µM (active),17.3 µM (inactive),0.431 µM (active),> 100 µM (inactive),13.8 µM (inactive),17.7 µM (inactive),> 100 µM (inactive),23 µM (inactive),7.31 µM (inactive),
CC(C)Nc1[nH]c(C(=O)c2ccccc2)c(N)c1C(=S)Nc1ccccc1,36.5 µM (inactive),90.6 µM (inactive),> 100 µM (inactive),21.8 µM (inactive),36.1 µM (inactive),27.9 µM (inactive),86.1 µM (inactive),40.4 µM (inactive),30.8 µM (inactive),41.3 µM (inactive),63.8 µM (inactive),84.7 µM (inactive),,> 100 µM (inactive),> 100 µM (inactive),> 100 µM (inactive),> 100 µM (inactive),43.2 µM (inactive),77.1 µM (inactive),
CCOC(=O)C1(CC(=O)O)CCCC1=O (centres undefined),> 100 µM (inactive),> 100 µM (inactive),> 100 µM (inactive),,> 100 µM (inactive),> 100 µM (inactive),> 100 µM (inactive),> 100 µM (inactive),> 100 µM (inactive),> 100 µM (inactive),> 100 µM (inactive),> 100 µM (inactive),> 100 µM (inactive),> 100 µM (inactive),> 100 µM (inactive),> 100 µM (inactive),> 100 µM (inactive),> 100 µM (inactive),> 100 µM (inactive),> 100 µM (inactive)
CCN(CC)C(=S)N/N=C/c1cc(OC)ccc1O,2.75 µM (inactive),4.17 µM (inactive),,3.86 µM (inactive),4.86 µM (inactive),7 µM (inactive),69.8 µM (inactive),3.84 µM (inactive),6.18 µM (inactive),3.03 µM (inactive),3.85 µM (inactive),4.51 µM (inactive),,4.11 µM (inactive),5.21 µM (inactive),5.79 µM (inactive),8.91 µM (inactive),3.61 µM (inactive),0.561 µM (active),9.04 µM (inactive)
O=C(c1ccccc1Cl)n1oc2ccccc2c1=O,77.1 µM (inactive),> 100 µM (inactive),29.7 µM (inactive),,52.8 µM (inactive),60.4 µM (inactive),> 100 µM (inactive),51.1 µM (inactive),> 100 µM (inactive),67 µM (inactive),13.8 µM (inactive),> 100 µM (inactive),28.1 µM (inactive),> 100 µM (inactive),> 100 µM (inactive),> 100 µM (inactive),> 100 µM (inactive),> 100 µM (inactive),> 100 µM (inactive),68.7 µM (inactive)
Cc1ccc2oc3c(c(Br)c(Br)n3C)c(=O)c2c1,16.7 µM (inactive),20.5 µM (inactive),28.4 µM (inactive),,15.7 µM (inactive),91.8 µM (inactive),18.5 µM (inactive),90.6 µM (inactive),> 100 µM (inactive),15.6 µM (inactive),46.2 µM (inactive),17.4 µM (inactive),> 100 µM (inactive),20.4 µM (inactive),,18.3 µM (inactive),17.8 µM (inactive),18.2 µM (inactive),13.9 µM (inactive),16.9 µM (inactive)
COc1c(-c2nc3ccc(N4CCN(C)CC4)nc3[nH]2)cc(OC)c2c1nc(COC(C)=O)n2C,> 100 µM (inactive),> 100 µM (inactive),> 100 µM (inactive),,86.3 µM (inactive),56.1 µM (inactive),> 100 µM (inactive),65.3 µM (inactive),71.8 µM (inactive),> 100 µM (inactive),> 100 µM (inactive),> 100 µM (inactive),,> 100 µM (inactive),> 100 µM (inactive),> 100 µM (inactive),90.2 µM (inactive),97.1 µM (inactive),> 100 µM (inactive),19 µM (inactive)
COC(=O)[C@]1(C)[C@H]2C[C@H]3O[C@H]4[C@H](O)[C@@H](O)OC(CC(O)C(C5=CC(=O)OC5)C(C5=CC(=O)OC5)C(O)CC56CCCCC7[C@@H](C)[C@H](C[C@H]8[C@](C)(C(=O)OC)[C@H](O)CC[C@]78C)O[C@H]([C@@H](O)[C@H](O)O5)[C@H]6O)(CCCCC([C@@H]3C)[C@]2(C)CC[C@@H]1O)[C@H]4O (some centres undefined),0.0318 µM (active),0.0286 µM (active),0.0488 µM (active),0.655 µM (active),0.0404 µM (active),0.157 µM (active),< 0.0251 µM (active),0.111 µM (active),0.247 µM (active),0.973 µM (active),< 0.01 µM (active),0.188 µM (active),,0.0767 µM (active),0.302 µM (active),< 0.021 µM (active),0.372 µM (active),0.194 µM (active),0.057 µM (active),0.0356 µM (active)
CCn1cc(C(=O)O)c(=O)c2ccc(C)nc21 [NALIDIXIC ACID],> 100 µM (inactive),> 100 µM (inactive),> 100 µM (inactive),> 100 µM (inactive),> 100 µM (inactive),> 100 µM (inactive),> 100 µM (inactive),> 100 µM (inactive),> 100 µM (inactive),> 100 µM (inactive),> 100 µM (inactive),> 100 µM (inactive),> 100 µM (inactive),> 100 µM (inactive),,> 100 µM (inactive),> 100 µM (inactive),> 100 µM (inactive),67 µM (inactive),
